Assay results as given in US20090036540A1, “Guanylhydrazones in Methods of Treatment or Diagnosis as Modulators of Signal Transduction” (Cytokine PharmaSciences, Inc., priority 2003, published 2009).

Legend:
[1] = tested on: Peripheral Blood Mononuclear Cells; assay: PepChip kinome array: in vitro phosphorylation of peptide array by lysates of LPS-stimulated PBMCs; format: cell-based, human
Experimental: (§1) Peripheral Blood Mononuclear Cells (PBMCs) were isolated from peripheral blood from healthy volunteers using standard density-gradient centrifugation over Ficoll-Paque Plus (Amersham Pharmacia Biotech AB, Uppsala, Sweden) after washing in resuspension in IMDM supplemented with 10% FBS, penicillin, streptomycin and amphotericin (hereafter referred to as complete IMDM).
For kinome array samples, 10^7 PBMCs were suspended in 5 ml media (IMDM supplemented with 1.0% human serum). LPS stimulation consisted of a […] (37° C., 5% CO2) with 100 ng/ml LPS (E. coli, serotype 0111:B4). CNI treated PBMCs were maintained in media dosed with 1.0 μM CNI-1493 (Cytokine PharmaSciences, Inc.) 1 hour before and during incubation for LPS stimulation. Stimulations were terminated by an ice-cold PBS wash. PBMCs were lysed in 200 μl cell lysis buffer (20 mM Tris-HCl (pH 7.5), 150 mM NaCl, 1 mM Na2EDTA, 1 mM EGTA, 1% Triton, 2.5 mM sodium pyrophosphate, 1 mM MgCl2, 1 mM beta-glycerophosphate, 1 mM Na3VO4, 1 mM NaF, 1 μg/ml leupeptin, 1 μg/ml aprotinin, 1 mM PMSF) and the volume of the cell lysate were equalised with dH2O. The cell lysates were subsequently cleared on a 0.22 μm filter. PepChip incubation mix was produced by adding 10 μl of filter-cleared activation mix (50% glycerol, 50 μM ATP, 0.05% v/v Brij-35, 0.25 mg/ml BSA, ^33P-γ-ATP (1000 kBq)). Next, the PepChip mix is added onto the chip and the chip is kept at 37° C. in a humidified stove for 90 minutes. Subsequently, the PepChip was washed once with TBST, twice in 2M NaCl and twice in demineralised H2O and air-dry the PepChip slips. The experiments were performed three times in duplicate. The average inter-experimental variance in relative values was less than 5% for all spots.
The chips were exposed to a phosphoimager plate for 72 hours and the spots were analysed on AIDA analysing software. For graphical visualisation of the spots in FIG. 2 the data of four arrays was averaged to eliminate false positives.

[2] = tested on: PBMCs; assay: Western blot of LPS-stimulated PBMCs for phosphorylated proteins; format: cell-based, human; conditions: 1.0 μM CNI-1493 pre-incubation, LPS 15 minutes
Experimental: as §1
For western blot samples, […] PBMCs were suspended in 1 ml media and LPS stimulations were 15 minute incubations (37° C., 5% CO2) with 10 ng/ml LPS or pre-incubated with 1.0 μM CNI-1493 (Cytokine PharmaSciences, Inc.). Stimulations were terminated by an ice-cold PBS wash. Cells were subsequently pelleted, lysed, denatured (5 minutes at 95° C.) and stored at −20° C. 10^6 PBMCs lysed in 200 μl SDS Sample Buffer (62.5 mM Tris-HCl (pH 6.8 at 25° C.), 2% w/v SDS, 10% glycerol, 50 mM DTT, 0.01% w/v bromophenol blue), 25 μl of which was separated on 12% SDS-PAGE gels and transferred to nitrocellulose membranes. Antibodies for immunoblotting were from Cell Signaling and included Phospho-p38 MAP Kinase (cat #9211), Phospho-p44/42 MAP Kinase (cat #9101), Phospho-PKCzeta/lambda (cat #9378), Phospho-MEK1/2 (cat #9121), Phospho-Raf (cat #9424) and Phospho-SAPK/JNK (cat #9255).

[3] = steroid- and infliximab-resistant Crohn's disease; cited from earlier work
[4] = lysates of Semapimod-treated, lipopolysaccharide-stimulated PBMCs

C/C(=N\NC(=N)N)c1cc(NC(=O)CCCCCCCCC(=O)Nc2cc(/C(C)=N/NC(=N)N)cc(/C(C)=N/NC(=N)N)c2)cc(/C(C)=N/NC(=N)N)c1 [Semapimod]
LPS + CNI: peptide phosphorylation, Kinase not given, Substrate GS ([1]; PBMC lysate, 1.0 μM CNI-1493, 100 ng/ml LPS, Control 9758, LPS 17052): 24415 | LPS + CNI: peptide phosphorylation, Kinase p38, Substrate MAPKAP2 ([1]; PBMC lysate, 1.0 μM CNI-1493, 100 ng/ml LPS, Control 10168, LPS 21440): 1150 | LPS + CNI: peptide phosphorylation, Kinase PKC, Substrate c-Src ([1]; PBMC lysate, 1.0 μM CNI-1493, 100 ng/ml LPS, Control 10728, LPS 10416): 17000 | LPS + CNI: peptide phosphorylation, Kinase PKC, Substrate c-RAF ([1]; PBMC lysate, 1.0 μM CNI-1493, 100 ng/ml LPS, Control 10764, LPS 13640): 9522 | LPS + CNI: peptide phosphorylation, Kinase not given, Substrate Tau ([1]; PBMC lysate, 1.0 μM CNI-1493, 100 ng/ml LPS, Control 15846, LPS 10500): 27753 | LPS + CNI: peptide phosphorylation, Kinase v-Fps, Substrate Caldesmon ([1]; PBMC lysate, 1.0 μM CNI-1493, 100 ng/ml LPS, Control 16002, LPS 22800): 31584 | LPS + CNI: peptide phosphorylation, Kinase and Substrate not given ([1]; PBMC lysate, 1.0 μM CNI-1493, 100 ng/ml LPS, Control 16320, LPS 822): 300 | LPS + CNI: peptide phosphorylation, Kinase not given, Substrate GS ([1]; PBMC lysate, 1.0 μM CNI-1493, 100 ng/ml LPS, Control 16920, LPS 19500): 23664 | LPS + CNI: peptide phosphorylation, Kinase CKII, Substrate GS ([1]; PBMC lysate, 1.0 μM CNI-1493, 100 ng/ml LPS, Control 17680, LPS 5350): 13120 | LPS + CNI: peptide phosphorylation, Kinase Lck, Substrate Tec ([1]; PBMC lysate, 1.0 μM CNI-1493, 100 ng/ml LPS, Control 18096, LPS 13824): 300 | LPS + CNI: peptide phosphorylation, Kinase PKC, Substrate Trop ([1]; PBMC lysate, 1.0 μM CNI-1493, 100 ng/ml LPS, Control 18786, LPS 23230): 40000 | LPS + CNI: peptide phosphorylation, Kinase not given, Substrate GS ([1]; PBMC lysate, 1.0 μM CNI-1493, 100 ng/ml LPS, Control 20736, LPS 20592): 26477 | LPS + CNI: peptide phosphorylation, Kinase p34cdc2, Substrate Lamin B1 ([1]; PBMC lysate, 1.0 μM CNI-1493, 100 ng/ml LPS, Control 21000, LPS 11165): 300 | LPS + CNI: peptide phosphorylation, Kinase not given, Substrate EIF4F ([1]; PBMC lysate, 1.0 μM CNI-1493, 100 ng/ml LPS, Control 21000, LPS 25200): 24624 | LPS + CNI: peptide phosphorylation, Kinase PKC, Substrate BICKS ([1]; PBMC lysate, 1.0 μM CNI-1493, 100 ng/ml LPS, Control 23400, LPS 38086): 15980 | LPS + CNI: peptide phosphorylation, Kinase PKC, Substrate MARCKS ([1]; PBMC lysate, 1.0 μM CNI-1493, 100 ng/ml LPS, Control 23714, LPS 16401): 13426 | LPS + CNI: peptide phosphorylation, Kinase not given, Substrate MBP ([1]; PBMC lysate, 1.0 μM CNI-1493, 100 ng/ml LPS, Control 26208, LPS 36442): 51888 | LPS + CNI: peptide phosphorylation, Kinase not given, Substrate Vimentin ([1]; PBMC lysate, 1.0 μM CNI-1493, 100 ng/ml LPS, Control 26240, LPS 30889): 59840 | LPS + CNI: peptide phosphorylation, Kinase not given, Substrate MBP ([1]; PBMC lysate, 1.0 μM CNI-1493, 100 ng/ml LPS, Control 26481, LPS 23852): 51414 | LPS + CNI: peptide phosphorylation, Kinase p42/44, Substrate MBP ([1]; PBMC lysate, 1.0 μM CNI-1493, 100 ng/ml LPS, Control 28710, LPS 536): 23296 | LPS + CNI: peptide phosphorylation, Kinase not given, Substrate GS ([1]; PBMC lysate, 1.0 μM CNI-1493, 100 ng/ml LPS, Control 31500, LPS 31050): 51102 | LPS + CNI: peptide phosphorylation, Kinase p42/44, Substrate MBP ([1]; PBMC lysate, 1.0 μM CNI-1493, 100 ng/ml LPS, Control 33814, LPS 14514): 26352 | LPS + CNI: peptide phosphorylation, Kinase PKA, Substrate MARCKS ([1]; PBMC lysate, 1.0 μM CNI-1493, 100 ng/ml LPS, Control 34295, LPS 31647): 62514 | LPS + CNI: peptide phosphorylation, Kinase not given, Substrate c-Src ([1]; PBMC lysate, 1.0 μM CNI-1493, 100 ng/ml LPS, Control 34410, LPS 2470): 319 | LPS + CNI: peptide phosphorylation, Kinase not given, Substrate Vimentin ([1]; PBMC lysate, 1.0 μM CNI-1493, 100 ng/ml LPS, Control 37760, LPS 18020): 44200 | LPS + CNI: peptide phosphorylation, Kinase not given, Substrate MBP ([1]; PBMC lysate, 1.0 μM CNI-1493, 100 ng/ml LPS, Control 38634, LPS 36464): 38354 | LPS + CNI: peptide phosphorylation, Kinase not given, Substrate MBP ([1]; PBMC lysate, 1.0 μM CNI-1493, 100 ng/ml LPS, Control 40793, LPS 36600): 55572 | LPS + CNI: peptide phosphorylation, Kinase PKC, Substrate MBP ([1]; PBMC lysate, 1.0 μM CNI-1493, 100 ng/ml LPS, Control 47940, LPS 18624): 15680 | LPS + CNI: peptide phosphorylation, Kinase not given, Substrate MLC-2 ([1]; PBMC lysate, 1.0 μM CNI-1493, 100 ng/ml LPS, Control 48400, LPS 53482): 33674 | LPS + CNI: peptide phosphorylation, Kinase not given, Substrate MBP ([1]; PBMC lysate, 1.0 μM CNI-1493, 100 ng/ml LPS, Control 60630, LPS 62900): 65076 | LPS + CNI: peptide phosphorylation, Kinase PKA, p42/44, Substrate CgA ([1]; PBMC lysate, 1.0 μM CNI-1493, 100 ng/ml LPS, Control 62088, LPS 548): 6700 | capacity to phosphorylate peptides representing consensus sequences for MAP kinase family members [1, 4]: strongly impaired | phosphorylation of a peptide representing a consensus phosphorylation site for MEK kinase [1, 4]: inhibited | phosphorylation of a peptide representing the PKC consensus phosphorylation site in c-Raf [1, 4]: not impaired | MEK phosphorylation [2]: abolishes MEK phosphorylation | lipopolysaccharide-dependent phosphorylation of the PKC site in c-Raf [2]: does not interfere | clinical effect in Crohn's disease [3]: induces clinical remission and endoscopal healing
